# Laboratory results as given in a melting point compilation (Tetko et al.; mined from patent text by program, amines drawn as free bases though some values may be those of a salt).
row,SMILES,melting point [°C]
1,CC(C)(C)OC(=O)N1CCCC1C(=O)Nc1ccc(-n2nc(C(F)(F)F)cc2C(F)(F)F)cc1 (stereo not drawn),70 to 72
2,O=C(O)c1conc1-c1ccccc1,163 to 164
3,CCCOC(=O)c1ccc(CCCCOCCCCCNCC(O)c2ccc(O)c(NS(C)(=O)=O)c2)cc1 (stereo not drawn),74 to 76
4,Cc1nc(N)c2nc(C)n(CCNC(=O)C(C)C)c2c1C,220 to 222
5,CN(C)C(=NC(=O)C(O)(C(N)=O)c1ccc(Cl)c(Cl)c1)N(C)C (stereo not drawn),98 to 100
6,Cc1ccc(-c2ccc3c(c2)C=C(C(=O)Nc2ccc(-c4ccccn4)cc2)CCO3)cc1,228 to 229
7,O=C(O)CCNC(=O)C(CS)Cc1ccccc1 (stereo not drawn),76 to 82
8,CCOC(=O)c1ccc(OCCCCCCCCc2cc(C)no2)cc1,49
9,CCOC(=O)c1ccc(NO)cc1,72.5
10,COc1ccc2c(c1)CC(N(C)CCCNC(=O)Cc1cc(OC)c(OC)cc1[N+](=O)[O-])CC2 (stereo not drawn),116 to 118
11,CCCCc1c(Cc2ccc(-c3ccccc3C(=O)O)cc2)c(=O)nc2n1CC(=O)N2,220 to 222
12,Cc1cc(NCCO)c2[nH]nc(C)c2n1,225 to 230
13,CC(C)c1cn(C(C)(C)C(=O)N(C)C)nc1-c1ccccc1,80.5 to 82.5
14,CS(=O)(=O)Nc1cccc(Nc2nc(NCCO)c3nc[nH]c3n2)c1,163 to 166
15,C=CCN1C(C)(C)CC(OC(=O)CCC(C)(c2ccc(O)c(C(C)(C)C)c2)c2ccc(O)c(C(C)(C)C)c2)CC1(C)C,197
16,Cc1ccc(C2(Br)C(=O)NC(=O)NC2=O)cc1,210 to 213
17,O=C(O)C=CC(=O)c1cc(Cl)c(Cl)cc1Cl,177 to 181
18,CC(=O)NC(C)c1c[nH]c(C)n1 (stereo not drawn),125 to 128
19,CC(=O)NC[C@H]1CN(c2ccc(C3=CCN(C(=O)COC(C)=O)CC3)c(F)c2)C(=O)O1,188 to 191

row,SMILES,melting point [°C]
1,CCc1ccc(C(=O)N[C@H](Cc2ccccc2)C(=O)O)cc1,166
2,CC(C)(C)OC(=O)NCCNC(=O)c1cc(-c2ccccc2)c(=O)n2c1-c1ccccc1C2,238 to 240
3,CCc1cccc(CC)c1NC(=O)c1c(-c2ccccc2)oc(C)cc1=O,186 to 189
4,O=[N+]([O-])c1cccc2c1COC2,104 to 108
5,Cc1c(C)c2c(c(C)c1NC(=O)CC(C)(C)C)OC(C)(C)C2c1ccc(C(C)C)cc1 (stereo not drawn),128 to 129
6,CCCCc1oc2ccccc2c1Cc1cc(Br)c(O[C@H](Cc2ccccc2)C(=O)O)c(Br)c1,225 to 226
7,COC(=O)c1c(Cc2ccc(S(=O)(=O)N3CCN(C)CC3)cc2)c(=O)c2ccccc2n1-c1ccccc1,210 to 212
8,CCC(=O)NCCC1=C(Cc2ccccc2)Cc2ccc(OC)cc21,149 to 151
9,CCN(CC)C(=O)N1CCc2ccc(S(=O)(=O)NC(=O)NC3CCCCC3)cc2CC1,168 to 169
10,CCOC(=O)C(C)OCC#Cc1nc(Cl)ccc1N (stereo not drawn),70
11,CCCCCCCCCCC1(CCCCCCCCCC)c2cc(Br)ccc2-c2ccc(C=O)cc21,45 to 47
12,CC(C)(CO)CCCC(O)CCCC(O)CCCC(C)(C)CO (stereo not drawn),85 to 86
13,CC(C)COC(=O)C1(F)C(=O)NC(=O)NC1O/N=C\c1ccco1 (stereo not drawn),159 to 160
14,COc1ccc2c(c1)CCC(N(CC(=O)O)C(=O)C(C)CSC(C)=O)C2 (stereo not drawn),118 to 122
15,CC(C)SSCC12CCC(O)CC1=CCC1C3CCC(=O)C3(C)CCC12 (stereo not drawn),168 to 169
16,Cc1c(C)c2ccc(OCC(O)CN3CCC(NC(=O)c4ccccc4)CC3)cc2oc1=O (stereo not drawn),178 to 180
17,CCOC(=O)N1C(=O)N(C(=O)OCc2ccccc2)C2(C1=O)C(=O)N(Cc1ccc(Cl)c(Cl)c1)c1ccccc12 (stereo not drawn),128 to 131
18,CCc1cccc(C(C)C)c1N1C(=O)CCN(CC)C1=S,129 to 132
19,OC(COc1ncnc2nc[nH]c12)CN1CCN(C(c2ccccc2)c2ccccc2)CC1 (stereo not drawn),115

row,SMILES,melting point [°C]
1,O=C1CCOc2c1ccc(O)c2CCCc1ccccc1,110 to 112
2,O=c1[nH]c(=O)n([C@@H]2O[C@H](CO)[C@@H](O)[C@H]2O)cc1/C(I)=C\I,107 to 109
3,CCC(CC)C(O)C(O)C(CC1CCCCC1)NC(=O)C(Cc1c[nH]cn1)NC(=O)C(CC(=O)C(C)(C)C)Cc1ccccc1 (stereo not drawn),160
4,CCC(OC(C)=O)c1ccc(Cl)c2nc3n(c12)CCCN3c1ccc(OC)nc1C (stereo not drawn),157 to 159
5,CCOC(=O)NC1(c2cccs2)CCC2(CC1)OCCO2,113 to 117
6,OC(CCl)(CC(Cl)(Cl)Cl)c1cc(Cl)cc(Cl)c1 (stereo not drawn),69 to 70.5
7,CC1N=C(N2CCN(C)CC2)NN=C1c1ccccc1 (stereo not drawn),124 to 125
8,O=C(CC(=O)C(F)(F)F)c1ccc(OCc2ccccc2)cc1,220 to 224
9,NC(Cc1ccccc1)C(O)C(F)(F)F (stereo not drawn),110 to 111
10,Nc1ccc(Cl)cc1C(=O)c1ccc(Cl)cc1,106 to 107
11,NS(=O)(=O)c1cc2c(s1)SCCCC2=O,185 to 186
12,Nc1nnc(C(F)(F)C(Cl)Cl)o1,171
13,c1cnc(NCCCNCC2CCc3ccc4c(c3O2)CCCC4)nc1 (stereo not drawn),57.6
14,CN1CCN(Cc2cc(N)cc(C(F)(F)F)c2)CC1,98 to 99
15,O=C(O)C1Cc2c(ncn2CCC2CCCCC2)CN1C(=O)C(c1ccccc1)c1ccccc1 (stereo not drawn),137 to 140
16,O=C(NO)c1ccc2c(c1)CN(C(=O)c1ccc(-c3ccccc3)cc1)C2,160 to 190
17,COc1ccc2c(c1O)C13CCNC(C2)C1CC(C)C(=O)C3 (stereo not drawn),163 to 165
18,CCOCC1(F)CCN(c2ccc(N3C[C@H](CNC(C)=O)OC3=O)cc2F)CC1,109 to 111
19,CCCCCCCCCCCCCCOc1ccc(CC(=O)Nc2cccc(-c3nccs3)c2)cc1,128 to 131

# More lines, now with the values ahead:
row,melting point [°C],SMILES
1,133 to 134,Cc1ccc(-c2cc(F)c(F)cc2-c2ccc(S(N)(=O)=O)cc2)cc1C
2,71 to 74,CCN1CCN(CC)c2cc(Nc3nc(Cl)ncc3Cl)ccc2C1=O
3,240 to 245,O=c1c2c(O)cc(O)cc2ncn1-c1ccc(O)cc1
4,70 to 71,CNS(=O)(=O)Cc1ccc2[nH]cc(CCN=CNc3cccnc3)c2c1
5,360,Cc1ccc(N2CCN(c3cc4c(ncc5c4c(=O)c(C(=O)O)cn5C)c(F)c3Cl)CC2)cc1F
6,200 to 201,COc1ccc(-c2c(CO)c(C)nc3cc(OC)c(OC)cc23)cc1OC
7,137 to 138,CN(C)Cc1cc(C(=O)c2ccc(Cl)s2)cc(C(C)(C)C)c1O
8,235 to 237,O=[N+]([O-])c1cnn2c(-c3cccs3)ccnc12
9,274 to 280,CC(C)(C)OC(=O)Nc1ccc(Nc2ncnc3[nH]cc(C(=O)c4ccccc4)c23)cc1
10,198 to 200,COc1ccc(NC(=O)/C=C/c2c(OC)cc(OC)cc2OC)cc1
11,212 to 214,COC(c1ccc(Cl)cc1)(c1ccc(NC(=O)c2cccc(I)c2C(=O)NC(C)C)c(C)c1)C(F)(F)F (stereo not drawn)
12,153,CCCc1nc(C)n2cnnc2c1Cc1ccc(-c2ccccc2C#N)cc1
13,194 to 196,C#Cc1cnn2c(C3CC3)cc(-c3ccc(Cl)c(Cl)c3)nc12
14,97 to 98,O=C1O[C@@H](COc2cnsn2)CN1c1ccc(N2C[C@@H]3C[C@H]2CN3Cc2ccccc2)c(F)c1
15,185,Cn1ncnc1COc1nn2c(-c3ccccc3)nncc2c1-c1ccccc1
16,180 to 181,COc1cc(Nc2nccc(-c3sc(CO)nc3C)n2)ccc1N1CCOCC1
17,168 to 178,COc1ccc2nc(-n3ccnc3)nc(NCCSC)c2c1
18,66 to 67,O=C(Nc1ccc(-n2nc(C(F)(F)F)cc2C(F)(F)F)cc1F)c1ccc(F)cc1F
19,135 to 138,CCCCc1oc2ccccc2c1C(=O)NCc1ccc2c(-c3ccccc3)c(OCC#N)ccc2c1
20,186 to 188,N#Cc1cnc2cnc(F)cc2c1Oc1ccc(Cl)cc1F
21,127 to 129,COc1cccc(Cc2cc3cccc(-c4cccc(C(=O)O)c4)c3o2)c1

row,melting point [°C],SMILES
1,60 to 61,CCOC(=O)c1ccc(OCCCCCCCc2cc(C)no2)cc1
2,138 to 139,CCCCn1c(Cc2cc(OC)ccc2Cl)nc2c(N)ncnc21
3,169 to 172,CS(=O)(=O)Nc1cccc2c(-c3ccccc3)c([N+](=O)[O-])oc12
4,294 to 296,NOCc1ccc2c(c1)-c1n[nH]c(=O)c3cccc(c13)O2
5,63,O=C(C#CCO)c1ccc(F)cc1
6,142 to 143,CCCOc1ccccc1-c1nc2ncncc2c(=O)[nH]1
7,66 to 68,CC(=O)c1ccc(Oc2ccc(Cl)cc2)cc1
8,295 to 297,N=C(NO)c1ccc(-c2cccc(-c3nc4cc(C(=N)NO)ccc4[nH]3)c2)nc1
9,160 to 161,CSC(Oc1cc(Cl)c2ncc(Br)cc2c1)C(=O)NC(C)(C)C (stereo not drawn)
10,> 250,O=C(Nc1cccc2c(NN3CCOC3=O)ccnc12)c1c(Cl)cccc1Cl
11,113 to 114,COc1ccc2c(c1)c(CC(=O)OCc1ccc(Cl)cc1)c(C)n2C(=O)c1ccc(Cl)cc1
12,188,CC1(C)CCC(C)(C)c2c(OCc3ccc(F)cc3)cc(C(O)C#Cc3ccc(C(=O)O)cc3)cc21 (stereo not drawn)
13,157,O=[N+]([O-])c1cc(Cl)c(Oc2cc(Cl)c(Br)cc2Cl)cc1NCc1ccccc1
14,212 to 215,COc1ccc(-c2c3c(cc4ccc(OC(C)C)cc24)C(=O)NC3)cc1
15,139 to 146,COc1ccc2c(c1)c(CCOC(=O)c1cc(O)c3c(c1)C(=O)c1cccc(O)c1C3=O)c(C)n2C(=O)c1ccc(Cl)cc1
16,208 to 213,CCCCN1C(N)=NS(=O)(=O)N=C1Oc1cccc(C)c1
17,194,CNC(=O)c1cccc(NC(=O)Cc2csc3ccccc23)c1
18,91 to 92,COc1ccc(N(c2nc(N)nc(NC3CC3)n2)C2CC2)cc1F
19,90,N#Cc1nc(Cl)c(-c2c(F)cccc2Cl)c(Cl)c1Br
20,274,COc1ccc(-c2[nH]nc3c2C(=O)c2c(NC(=O)CCl)cccc2-3)cc1
